{"source": "patent US20260069534A1", "about": "“ORAL DELIVERY OF ACTIVE COMPOUNDS FOR TREATING GLYCOGEN STORAGE DISEASES” (LYOTROPIC DELIVERY SYSTEMS LTD., priority 2022, published 2026)", "key": {"[1]": {"assay": "Tissue penetration / distribution in APBD model mice (LC-MS/MS)", "type": "in vivo", "procedure": "FIGS. 8A-8B show tissue penetration test results in APBD model mice for Compound GHF-201 in non-formulated form (FIG. 8A) and formulated in LDS-C formulation (FIG. 8B). For pharmacokinetic analysis, 100 μl serum as well as brain, kidney, hind limb quad muscle, heart, liver, and spleen tissues were collected, homogenized, and extracted with acetonitrile following established guidelines (Kapetanovic et al, 2006). Calibration curves were made with 0, 1, 10, 100, and 1,000 ng/ml GHF-201 in 1 mg/ml solutions of 4-tert-butyl-2-(4H-1,2,4-triazol-4-yl) phenol (ChemBridge) as internal standard (IS). Tissue samples were then dissolved in 1 mg/ml IS solutions and spiked with 0-1,000 ng/ml GHF-201 to generate standard curves from which tissue levels of GHF201 were determined. Samples were analyzed by the LC-MS/MS Sciex Triple Quad™ 5500 mass spectrometer.\nGbeys/ys mice injected subcutaneously with 250 mg/kg GHF-201 were sacrificed 30, 60, 90, and 210 min post injection, and the indicated tissues were removed, as well as 100 μL of serum drawn. […] Results obtained from n=3 mice at each time point.\nThe distribution and kinetic parameters of GHF-201 was assessed in different tissues."}, "[2]": {"assay": "Pharmacokinetics, 3-day oral dose escalation study in APBD patients", "type": "in vivo, human", "details": "for Cmax: human, plasma, oral, 340 mg, per os in formulation LDS-C, 170, 255, 340 mg on days 1, 2, 3", "procedure": "(§1) Compound GHF-201 was administered to APBD modeling mice as a 5% DMSO solution, IV injected twice a week at a dose of 250 mg/kg, equivalent to a daily dose of 70 mg/kg. Daily injection was avoided due to the relatively long duration of treatment (6 months), which might have led to excessive scarring. Following positive results in the murine model, compound GHF-201 was administered to two APBD patients as a part of a 3-day oral dose escalation study, during which clinical safety and pharmacokinetic profiles were determined.\nBlood was drawn during three consecutive days according to the following regime—pre-administration and 0.5 h, 1 h. 1.5 h, 2 h, and 4 h post-administration. Compound GHF-201 was administered as formulation LDS-C. 7.15% Compound GHF-201. Active ingredient doses were 170 mg on the first day, 255 mg on the second day, and 340 mg on the third day.\nFollowing blood drawing, plasma was separated by centrifugation (up to 1 h from drawing) at 2000 g for 10 min. at 4° C. Compound GHF-201 levels in plasma (supernatant) samples were determined by LC-Mass Spectrometry (LC-MS/MS) using Sciex Triple Quad™ 5500 mass spectrometer. 100 μl of plasma were collected and extracted in 500 μl acetonitrile solution (acetonitrile/water 1:1 v/v). Calibration curves were made with 0.1, 10, 100, and 1000 ng/ml compound GHF-201 in 1 mg/ml solutions of 4-tert-butyl-2-(4H-1,2,4-triazol-4-yl) phenol (ChemBridge) as internal standard (IS). The samples were dissolved in 1 mg/ml IS solutions and spiked with 0-1000 ng/ml of compound GHF-201 to generate standard curves from which plasma levels of compound GHF-201 were determined."}, "mice": {"tested_on": "mice", "assay": "14-day safety study in mice", "type": "in vivo", "details": "14-day study", "procedure": "Pharmacokinetically, subcutaneously injected in mice, compound GHF-201 had high dwell time and persistence (>3 h) in the liver, intermediate levels and persistence in brain and heart (1 h) and negligible distribution to the muscle. […] The ameliorative effect on extension reflex is especially important since the patient correlate is pyramidal tetraparesis or upper motor neuron signs which are one of the main neurological deficiencies in APBD patients."}, "[3]": {"assay": "Pharmacokinetic profile in APBD modeling mice, IV 250 mg/kg", "details": "in vivo", "procedure": "FIGS. 9A-9C are pharmacokinetic profiles of Compound GHF-201 administered per os in formulation LDS-C to APBD patient 1 (FIG. 9A) and IV at 250 mg/kg to n=3 APBD modeling mice (FIG. 9B). Active ingredient doses in days 1, 2, and 3 were 170 mg, 255 mg, and 340 mg, respectively. Encircled in A, values blown up in FIG. 9C.\nas §1\nFollowing the FDA human equivalent dose calculation, mouse dose can be converted to human dose by dividing by 12. […] Divided by 12, 4,700 ng/mL yields 392 ng/mL. […] Therefore, it was assumed that a human equivalent, or higher, dose in patients is at least as effective as the equivalent dose in mice."}, "[4]": {"details": "subcutaneously injected in mice"}}, "data": [{"smiles": "COCCN(Cc1sccc1C)C(=O)c1cc(C)[nH]c(=O)c1", "note": "[Compound GHF-201]", "values": [{"measurement": "bioavailability increase in all tissues", "setting": "[1]; orally administered in formulation vs subcutaneous injections of GHF-201 in solution, APBD model mice", "value": "at least three-fold"}, {"measurement": "distribution to the muscle", "setting": "[1]; [4]", "value": "negligible"}, {"measurement": "dwell time and persistence in the liver", "setting": "[1]; [4]", "value": "> 3", "unit": "h"}, {"measurement": "persistence in brain and heart", "setting": "[1]; [4]", "value": 1, "unit": "h"}, {"measurement": "Cmax", "setting": "[2]; patient 1", "value": 894, "unit": "ng/mL"}, {"measurement": "Cmax", "setting": "[2]; patient 2", "value": 883, "unit": "ng/mL"}, {"measurement": "Areas Under the Curve (AUC)", "setting": "[2]; patients 1 and 2, sum of trapezoids", "value": "correlated with the level of compound GHF-201 administered"}, {"measurement": "pre-administration levels in the plasma", "setting": "[2]; patients, three consecutive days", "value": "increased every consecutive day"}, {"measurement": "safety", "setting": "mice", "value": "safe"}, {"measurement": "Human-equivalent Cmax (mouse Cmax divided by 12)", "setting": "[3]; intravenous, 250 mg/kg, FDA human equivalent dose calculation", "value": 392, "unit": "ng/mL"}, {"measurement": "Cmax", "setting": "[3]; mouse, APBD modeling mice, IV 250 mg/kg", "value": 4700, "unit": "ng/mL"}]}]}
